According to patent US4187312A, “3-Hydroxy-4,4-dimethyl-5-pyrrolidone derivatives” (Beecham Group Limited, priority 1975, dated 1980):

Tests used:
[1] = tested on: aerosol administered histamine challenge; experiment: protection of conscious guinea pigs from an aerosol administered histamine challenge; type: in vivo, guinea pig; conditions: 30 minutes before continuous aerosol of histamine
Protocol: The compounds were examined for their ability to protect conscious guinea pigs from an aerosol administered histamine challenge. The compounds were given 30 minutes before the animals were challenged with a continuous aerosol of histamine.

[2] = tested on: 5-hydroxytryptamine-induced bronchoconstriction; experiment: inhibition of 5-hydroxytryptamine-induced bronchoconstriction in the anaesthetised, artificially respired guinea pig (Konzett-Rossler preparation); type: in vivo; conditions: Cavia porcellus, iv, intravenously, read-out: inhibition of bronchoconstriction, IC50
From the text: The compounds were examined for their ability to inhibit 5-hydroxytryptamine-induced bronchoconstriction in the anaesthetised, artificially respired guinea pig (Konzett-Rossler preparation).

mice = experiment: toxicity in mice; type: in vivo; conditions: dosed up to 900 mg/kg, subcutaneously
[3] = tested on: pentagastrin-stimulated gastric acid secretion; experiment: inhibition of pentagastrin-stimulated gastric acid secretion in the perfused rat stomach preparation (Ghosh and Schild preparation); type: in vivo; conditions: 500 μg/kg, intravenously
Protocol: The anti-secretory activity of the compounds was determined by their inhibition of pentagastrin-stimulated gastric acid secretion in the perfused rat stomach preparation (Ghosh and Schild preparation).

CCCCCCC(C)(O)CCN1C(=O)C(C)(C)C(=O)C1CCCCCCC(=O)O (centres unmarked) [2-(6'-Carboxy-n-hexyl)-4,4-dimethyl-1-(3"-hydroxy-3"-methyl-n-nonyl)pyrrolidin-3,5-dione]
time taken to elicit a pre-convulsive cough compared with control animals ([1]; 2.5 mg/kg, intra-peritoneally): significantly prolonged
time taken to elicit a pre-convulsive cough compared with control animals ([1]; 10 mg/kg orally): significantly prolonged

CCCCCCC(C)(O)CCN1C(=O)C(C)(C)C(=O)C1CCCCCCC(=O)OCC (centres unmarked) [4,4-Dimethyl-2-(6'-ethoxycarbonyl-n-hexyl)-1-(3"-hydroxy-3"-methyl-n-nonyl)-pyrrolidin-3,5-dione]
ED50 [2]: ~0.01 mg/kg
toxic symptoms (mice): No toxic symptoms were observed
inhibition of acid secretion [3]: inhibited acid secretion
